Data published in patent US20120009590A1, “DEVICE AND NON-TOXIC COMPOSITIONS AND METHODS FOR PERMEABILIZATION OF DROSOPHILA EMBRYOS” (The University of Vermont and State Agriculture College, priority 2009, published 2012).

Assays:
[1] = system: engrailed-GFP embryos; conditions: EPS-permeabilized embryos
Procedure: Incubations of permeabilized embryos were carried out in two types of chambers. Longer-term incubations (6-48 hours) were done in a modified nitex basket (see FIG. 1). The basket-reservoir apparatus was covered with a tight fitting cap to limit evaporation and was incubated at 18° C. for continued development of the embryo. Short term incubations <3 hours were done in a slide chamber (see FIG. 2A). […] Incubations for early embryonic endpoints were done at room temperature and for later developmental endpoint (e.g. gut development and engrailed patterning) at 18° C.
Drug treatments were done by additions to the PBS solution reservoir during incubation in either the slide or basket chambers. Drugs used were: cycloheximide (Fluka 01810, MW=281.35, 50 mM stock in H2O), colchicine (Biomol Labs T118, MW=[…] in H2O), methylmercury chloride (Aldrich 442534, MW=251, 50 mM stock in DMSO), cytochalasin D (Sigma C8273, MW=507.6, 5 mM stock in DMSO) and cyclophosphamide (LKT C9609, MW=279.1, 100 mM stock in H2O).
The engrailed gene encodes a homeodomain transcription factor that is highly conserved in all metazoans. Engrailed is a segment polarity gene whose expression marks the […] boundary of each segment in the embryo. Engrailed also function in neural development to define developing brain regions and regulate growth of axons.

[2] = Miscibility with water; format: physicochemical; conditions: without surfactant
Procedure: The presence of at least one surfactant is required to allow for the formation of a stable emulsion for sufficient time to allow for permeabilization of the embryos (i.e., at least about 10 minutes).

[3] = system: Canton S embryos; assay: Scoring of cephalic furrow formation and germband elongation in embryos; format: in vivo, Drosophila melanogaster
Procedure: Effects of EPS and cycloheximide or other agents on embryo development were scored using contemporaneous DIC optics and fluorescent visualization. Canton S embryos were collected from a 3 hr laying and aged one additional hour at 25° C. Embryos were treated with 1:10 EPS in H2O for 30-60 seconds followed by washing and immersion in 1 mM rhodamine B dye in PBS for 5 minutes with rocking. Embryos were washed four times in PBS and immersed in PBS containing 10 μM cycloheximide on a Kiehart slide. Embryos were allowed to develop an additional 1.5 hours at ambient temperature (˜23° C.). […] Variable treatments included omission of EPS exposure or omission of cycloheximide or other toxic agent. Each condition was assayed in three independent preparations of embryos with >180 embryos scored for each treatment condition.
We next sought to determine the feasibility of using an early embryogenesis endpoint as an indicator of teratogenic effects. In separate experiments using flies carrying the GFP reporter for the Dorsal protein we determined that CHX had profound effects on the morphogenetic movements of the embryo in the first 3-5 hours of development (see FIG. 13 below). During these stages formation of the cephalic furrow and germband elongation serve as landmarks that are easily identifiable under differential interference contrast (DIC) microscopy (see FIG. 8). […]

[4] = system: Drosophila embryos; assay: Midgut development by blue yolk auto-fluorescence at Stage 16; format: in vivo, Drosophila melanogaster; conditions: EPS-treated 3 hr old embryos, 10 μM, 18° C., 20 hours
Procedure: The embryo develops into a larva in 22-24 hours at 25° C. (refer to FIG. 9A). […] We investigated a variety of morphological events leading up to stage 17 for potentially easily identifiable endpoints. Through monitoring development under fluorescence time-lapse imaging we observed the highly dynamic pattern of blue fluorescence emitted from the auto-fluorescence of yolk proteins in the embryo. At preblastodem stages a relatively uniformly dispersed blue fluorescence is seen across the embryo (FIG. 11A). Between 3-6 hours of development this pattern changes drastically as the yolk proteins are pushed aside during germband elongation (refer to FIG. 9A). […] Blue fluorescence is seen to consolidate in the lumen of the gut initially as one large mass in the newly fused midgut (FIG. 11A, 12 hrs). […] The compartmentalized strong blue fluorescence in the midgut makes normally developed Stage 16/17 embryos easily discernable under fluorescence (FIG. 11A, 14 hrs).
We next tested the utility of this endpoint to examine small molecule toxicity by exposing permeabilized embryos to cycloheximide (CHX), a potent protein synthesis inhibitor and teratogen. EPS-treated 3 hr old embryos were incubated in the presence (FIG. 11 D, E) or absence (FIG. 11A,B,C) of 10 μM CHX at 18° C. for 20 hours (equivalent to 10 hours at 25° C.) and examined under blue fluorescence. […]

[5] = system: Dorsal-GFP embryos; assay: Dorsal-GFP reporter in preblastoderm embryos; format: in vivo, Drosophila melanogaster; conditions: EPS treated preblastoderm embryos
Description: We turned to the Dorsal-GFP transgenic fusion construct reporter to further examine the effects of the teratogen CHX. The Dorsal protein is the Drosophila NF-κB homolog which is central to signaling that establishes the dorsal-ventral axis in the embryo. Dorsal protein localizes to ventral cell nuclei where it acts to define the D/V axis.
Using this same Dorsal-GFP construct we see dynamic distribution of Dorsal-GFP in and out of the ventral nuclei of an EPS treated pre-blastoderm embryos (FIG. 13A, B). […] In many cases these early embryos are seen to stall in development. […] Embryos affected at slightly later stages show irregular nuclear Dorsal accumulation (FIG. 13D) as well as varied sizes in the nuclei present (FIG. 13E). It is interesting to note that these deformities occur more frequently in the anterior portion of the embryo, consistent with the gradient of dye dispersal seen in EPS treated embryos.

O=P1(N(CCCl)CCCl)NCCCO1 (centres unmarked) [cyclophosphamide]
engrailed-GFP expression pattern and embryo development [1]: overall shortening of the embryo and generates breaks in the bands of engrailed expressing cells

[CH3][Hg][Cl] [MeHg, methylmercury chloride]
engrailed-GFP expression pattern and embryo development [1]: stalls the embryo at Stage 11 and disrupts the regularity of engrailed banding pattern

C=C(C)C1CC=C(C)CC1 [Limonene, D-Limonene]
miscibility with water [2]: not miscible with water

C=C1[C@@H](C)[C@H]2[C@H](Cc3ccccc3)NC(=O)[C@]23[C@H](OC(C)=O)/C=C/[C@@](C)(O)C(=O)[C@@H](C)C/C=C/[C@H]3[C@@H]1O [Cytochalasin D, cytochalasin D]
engrailed-GFP expression pattern and embryo development [1]: stalling of embryo development at Stage 11 with gaps in the Engrailed band of cells in several segments

C[C@@H]1C[C@@H]([C@H](O)CC2CC(=O)NC(=O)C2)C(=O)[C@@H](C)C1 [CHX, cycloheximide]
cephalic furrow formation ([3]; 2.5 hr old permeabilized embryos, 10 μM, 1.5 hours): disruption of cephalic furrow formation | EPS treated embryos with abnormal formation of the cephalic furrow ([3]; CHX 10 μM, EPS treated embryos): more than 80% | gut development (blue fluorescence pattern) [4]: induced gut malformation | pattern of nuclear divisions and Dorsal-GFP distribution [5]: gross deformities in the pattern of nuclear divisions and Dorsal distribution
